The results in this text go back to PMC9000336, “Development of Bicyclo[3.1.0]hexane-Based A3 Receptor Ligands: Closing the Gaps in the Structure–Affinity Relationships” (Molecules, 2022).

In this assay the target is T1, human adenosine A3 receptor (Homo sapiens, UniProt P0DMS8).
T1 construct: expressed in transfected cells; host or cells: CHO cells (CHOhA3R), gift of Dr. K.-N. Klotz (University of Würzburg); membrane preparation
T1 sequence (P0DMS8 1-318): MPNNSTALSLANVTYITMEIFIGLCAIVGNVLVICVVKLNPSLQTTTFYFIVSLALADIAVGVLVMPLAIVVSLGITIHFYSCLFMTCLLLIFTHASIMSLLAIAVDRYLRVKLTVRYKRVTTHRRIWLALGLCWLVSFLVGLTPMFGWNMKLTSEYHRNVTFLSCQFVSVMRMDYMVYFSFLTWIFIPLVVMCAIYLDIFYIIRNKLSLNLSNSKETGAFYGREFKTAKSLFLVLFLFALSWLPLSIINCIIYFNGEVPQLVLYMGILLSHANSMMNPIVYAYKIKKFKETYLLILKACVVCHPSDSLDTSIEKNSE
The experiment in a line: Radioligand displacement assay, human adenosine A3 receptor ([3H]PSB11, CHOhA3R membranes). Format: binding. To be noted: for Ki / A3 displacement at 1 µM / inhibition at 10 µM: n = 3; for A3 displacement at 1 µM: footnote a: test compound 1 µM; for inhibition at 10 µM: test compound 10 µM. As to the method: Chinese hamster ovary (CHO) cells stably expressing the human adenosine A1 receptor (CHOhA1R) were kindly provided by Prof. S. J. Hill and CHO cells stably expressing the human adenosine A3 receptor (CHOhA3R) were a gift from Dr. K.-N. Klotz (University of Würzburg, Germany). Chinese hamster ovary cells stably expressing the human A1-receptor (CHOhA1R) or the human A3-receptor (CHOhA3R) were grown in Dulbecco’s Modified Eagle’s Medium (DMEM) and Ham’s F12 medium (1:1) supplemented with 10% (v/v) newborn calf serum, 50 µg/mL streptomycin, 50 IU/mL penicillin, and 200 µg/mL G418 at 37 °C and 5% CO2. […] All cells were grown to 80–90% confluency and detached from plates by scraping them into 5 mL phosphate-buffered saline. Detached cells were collected and centrifuged at 200 g for 5 min. Pellets derived from 100 15 cm Ø plates were pooled and resuspended in 70 mL of ice-cold 50 mM tris(hydroxymethyl)aminomethane (Tris)-HCl buffer, pH 7.4. A Heidolph Diax 900 homogenizer was used to homogenize the cell suspension. Membranes and the cytosolic fraction were separated by centrifugation at 100,000 g in a Beckman Optima LE-80 K ultracentrifuge (Beckman Coulter, Fullerton, CA, USA) at 4 °C for 20 min. The pellet was resuspended in 35 mL of the Tris-HCl buffer, and the homogenization and centrifugation steps were repeated. Tris-HCl buffer (25 mL) was used to resuspend the pellet, and adenosine deaminase (ADA) was added (0.8 U/mL) to break down endogenous adenosine. Membranes were stored in 250 µL and 500 µL aliquots at −80 °C. Total protein concentrations were measured using the bicinchoninic acid (BCA) method.
A3 Receptor: Membrane aliquots containing 15 µg (CHOhA3R) total protein were incubated in a total volume of 100 µL assay buffer (50 mM Tris-HCl, pH 8.0, supplemented with 10 mM MgCl2, 1 mM EDTA and 0.01% (w/v) CHAPS) at 25 °C for 2 h. Radioligand displacement experiments were performed using six concentrations of competing ligand in the presence of 10 nM [^3H]8-ethyl-4-methyl-2-phenyl-(8R)-4,5,7,8-tetrahydro-1H-imidazo[2.1-i]purin-5-one ([^3H]PSB11). […] Nonspecific binding was determined in the presence of 100 µM NECA. Incubations were terminated by rapid vacuum filtration to separate the bound and free radioligand through prewetted 96-well GF/B filter plates using a PerkinElmer Filtermate-harvester (Perkin Elmer, Groningen, The Netherlands). Filters were subsequently washed 12 times with ice-cold 50 mM Tris-HCl supplemented with 10 mM MgCl2, and 1 mM EDTA, pH 8.0 for CHOhA3R.
The plates of all four adenosine receptor assays were dried at 55 °C after which MicroscintTM-20-cocktail was added (Perkin Elmer, Groningen, The Netherlands).
All experimental data were analyzed using the non-linear regression curve fitting program GraphPad Prism 7.0 (GraphPad Software Inc., San Diego, CA, USA). IC50 values obtained from competition displacement binding data were converted into Ki values using the Cheng–Prusoff equation.
For orientation: Loss of bound radioactivity is the signal in a displacement assay; it reports binding, not function.

Where [1] appears, read: [3H]PSB11, read-out: A3 Ki ± SEM.
[2] abbreviates: footnote a: tested at 1 µM, read-out: A3 Ki (bound, footnote a).

In general, Ki refers to a dissociation constant, usually derived from enzyme kinetics or from competition with a known ligand. What is called inhibition is the drop in the measured response relative to a control, in per cent. A low value points to a weak effect.

Read-outs that look alike come from different tables or passages of the source.

Turning to `COC(=O)CCc1cn(C[C@@]23C[C@@H]2[C@@H](n2cnc4c(N)nc(SC)nc42)[C@H](O)[C@@H]3O)nn1` [Compound 42, Methyl 3-(1-{[(1R,2R,3S,4R,5S)-4-(6-amino-2-methylthio-9H-purin-9-yl)-2,3-dihydroxybicyclo[3.1.0]hex-1-yl]methyl}-1H-1,2,3-triazol-4-yl)propanoate], under setting [1], the Ki came to 6350 ± 230 nM.

Consider `OC[C@@]12C[C@@H]1[C@@H](n1cnc3c(NCc4ccccc4)cc(Cl)nc31)[C@H](O)[C@@H]2O` [Compound 13, (1R,2R,3S,4R,5S)-4-[7-(Benzylamino)-5-chloro-3H-imidazo[4,5-b]pyridin-3-yl]-1-(hydroxymethyl)bicyclo[3.1.0]hexane-2,3-diol], for which the inhibitory constant (Ki) under setting [1] was 460 ± 20 nM.

On to `CSc1cc(NCc2ccccc2)c2ncn([C@H]3[C@H](O)[C@H](O)[C@]4(CO)C[C@H]34)c2n1` [Compound 14, (1R,2R,3S,4R,5S)-4-[7-(Benzylamino)-5-methylthio-3H-imidazo[4,5-b]pyridin-3-yl]-1-(hydroxymethyl)bicyclo[3.1.0]hexane-2,3-diol], for which, under setting [1], the inhibition constant Ki was 1510 ± 30 nM.

Turning to `Nc1ncnc2c1ncn2[C@H]1[C@H](O)[C@H](O)[C@]2(CO)C[C@H]12` [Compound 36, (N)-methanocarba adenosine], the inhibition constant Ki under setting [1] was 960 ± 50 nM.

As to `COC(=O)Cc1cn(C[C@@]23C[C@@H]2[C@@H](n2cnc4c(N)nc(SC)nc42)[C@H](O)[C@@H]3O)nn1` [Compound 41, Methyl 2-(1-{[(1R,2R,3S,4R,5S)-4-(6-amino-2-methylthio-9H-purin-9-yl)-2,3-dihydroxybicyclo[3.1.0]hex-1-yl]methyl}-1H-1,2,3-triazol-4-yl)acetate], the “A3 displacement at 1 µM” value is reported as 3% ^a.

In the case of `Nc1cc(Cl)nc2c1ncn2[C@H]1[C@H](O)[C@H](O)[C@]2(CO)C[C@H]12` [Compound 16, (1R,2R,3S,4R,5S)-4-(7-Amino-5-chloro-3H-imidazo[4,5-b]pyridin-3-yl)-1-(hydroxymethyl)bicyclo[3.1.0]hexane-2,3-diol], the inhibition constant (Ki) under setting [1] came out at 1600 ± 110 nM.

Take `CSc1nc(N(Cc2ccccc2)Cc2ccccc2)c2ncn([C@H]3[C@H](O)[C@H](O)[C@]4(CO)C[C@H]34)c2n1` [Compound 30, (1R,2R,3S,4R,5S)-4-[6-(Dibenzylamino)-2-methylthio-9H-purin-9-yl]-1-(hydroxymethyl)bicyclo[3.1.0]hexane-2,3-diol]: the Ki under setting [1] came out at 380 ± 10 nM. In addition, the “A3R selectivity” value (versus other P1 receptor subtypes) was “high A3R selectivity”.

As for `OC[C@@]12C[C@@H]1[C@@H](n1cnc3c(N(Cc4ccccc4)Cc4ccccc4)ncnc31)[C@H](O)[C@@H]2O` [Compound 26, (1R,2R,3S,4R,5S)-4-[6-(Dibenzylamino)-9H-purin-9-yl]-1-(hydroxymethyl)bicyclo[3.1.0]hexane-2,3-diol], the “potency at the A3 receptor” value is recorded as “not potent” and the inhibition at 10 µM was 8%.

The compound `COC(=O)c1cn(C[C@@]23C[C@@H]2[C@@H](n2cnc4c(N)nc(SC)nc42)[C@H](O)[C@@H]3O)nn1` [Compound 40, Methyl 1-{[(1R,2R,3S,4R,5S)-4-(6-amino-2-methylthio-9H-purin-9-yl)-2,3-dihydroxybicyclo[3.1.0]hex-1-yl]methyl}-1H-1,2,3-triazole-4-carboxylate] yielded an inhibition at 10 µM of 8%.

With `CSc1nc(N(Cc2ccccc2)Cc2ccccc2)c2ncn([C@H]3[C@H](O)[C@H](O)[C@]4(CCl)C[C@H]34)c2n1` [Compound 31, (1S,2R,3S,4R,5S)-4-[6-(Dibenzylamino)-2-methylthio-9H-purin-9-yl]-1-(chloromethyl)bicyclo[3.1.0]hexane-2,3-diol], the “potency at the A3 receptor” value is “not potent” and the inhibition at 10 µM was found to be 26%.

Consider `CSc1nc(N)c2ncn([C@H]3[C@H](O)[C@H](O)[C@]4(Cn5cc(C(=O)O)nn5)C[C@H]34)c2n1` [Compound 44, 1-{[(1R,2R,3S,4R,5S)-4-(6-Amino-2-methylthio-9H-purin-9-yl)-2,3-dihydroxybicyclo[3.1.0]hex-1-yl]methyl}-1H-1,2,3-triazole-4-carboxylic acid], for which, under setting [2], the inhibition constant Ki is greater than 1000 nM.

For the compound `CCN(CC)CC.CSc1nc(N)c2ncn([C@H]3[C@H](O)[C@H](O)[C@]4(CNc5c(O)c(=O)c5=O)C[C@H]34)c2n1` [Compound 47, Triethylammonium 2-{[(1R,2R,3S,4R,5S)-4-(6-Amino-2-methylthio-9H-purin-9-yl)-2,3-dihydroxybicyclo[3.1.0]hex-1-yl]methyl}amino-3,4-dioxocyclobut-1-en-1-olate], the “A3 displacement at 1 µM” value was 6% ^a.

In the case of `CSc1nc(N)c2ncn([C@H]3[C@H](O)[C@H](O)[C@]4(Cn5cc(CC(=O)O)nn5)C[C@H]34)c2n1` [Compound 45, 2-(1-{[(1R,2R,3S,4R,5S)-4-(6-Amino-2-methylthio-9H-purin-9-yl)-2,3-dihydroxybicyclo[3.1.0]hex-1-yl]methyl}-1H-1,2,3-triazol-4-yl)acetic acid], the inhibition constant Ki under setting [2] was greater than 1000 nM.

For `COc1ccc(CNc2cc(Cl)nc3c2ncn3[C@H]2[C@H](O)[C@H](O)[C@]3(CO)C[C@H]23)cc1` [Compound 15, (1R,2R,3S,4R,5S)-4-{5-Chloro-7-[(4-methoxy)benzylamino]-3H-imidazo[4,5-b]pyridin-3-yl}-1-(hydroxymethyl)bicyclo[3.1.0]hexane-2,3-diol], under setting [1], the inhibition constant (Ki) worked out at 500 ± 10 nM.

`CCN(CC)CC.CSc1nc(N)c2ncn([C@H]3[C@H](O)[C@H](O)[C@]4(CNS(=O)(=O)CC(=O)O)C[C@H]34)c2n1` [Compound 48, Triethylammonium 2-(N-{[(1R,2R,3S,4R,5S)-4-(6-amino-2-methylthio-9H-purin-9-yl)-2,3-dihydroxybicyclo[3.1.0]hex-1-yl]methyl}sulfamoyl)acetate]: the “A3 displacement at 1 µM” value is 5% ^a.

Compound `CSc1nc(N)c2ncn([C@H]3[C@H](O)[C@H](O)[C@]4(Cn5cc(CN)nn5)C[C@H]34)c2n1` [Compound 43, (1R,2R,3S,4R,5S)-4-(6-Amino-2-methylthio-9H-purin-9-yl)-1-{[4-(aminomethyl)-1H-1,2,3-triazol-1-yl]methyl}bicyclo[3.1.0]hexane-2,3-diol] yielded an inhibition at 10 µM of 13%.

Take `CSc1nc(N)c2ncn([C@H]3[C@H](O)[C@H](O)[C@]4(Cn5cc(CO)nn5)C[C@H]34)c2n1` [Compound 39, (1R,2R,3S,4R,5S)-4-(6-Amino-2-methylthio-9H-purin-9-yl)-1-{[4-(hydroxymethyl)-1H-1,2,3-triazol-1-yl]methyl}bicyclo[3.1.0]hexane-2,3-diol]: the inhibition at 10 µM was determined as 37%.

Regarding `CSc1nc(N)c2ncn([C@H]3[C@H](O)[C@H](O)[C@]4(Cn5cc(CCC(=O)O)nn5)C[C@H]34)c2n1` [Compound 46], the inhibition constant Ki under setting [2] is greater than 1000 nM.

Consider `OC[C@@]12C[C@@H]1[C@@H](n1cnc3c(N(Cc4ccccc4)Cc4ccccc4)nc(Cl)nc31)[C@H](O)[C@@H]2O` [Compound 27, (1R,2R,3S,4R,5S)-4-[6-(Dibenzylamino)-2-chloro-9H-purin-9-yl]-1-(hydroxymethyl)bicyclo[3.1.0]hexane-2,3-diol], for which the “potency at the A3 receptor” value is given as “not potent” and the inhibition at 10 µM is 4%.
